Laboratory results as given in ChEMBL document CHEMBL1201862, “PubChem BioAssay data set” (2004).
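48-hour exposure; five concentrations; linearly interpolated endpoints. GI50 = concentration required for 50% inhibition of growth.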 Active and inactive are the calls of the source. Cut-off read from the data, not from the text of the source: active = GI50 up to about 1.1 µM and inactive = higher.

Experiments:
Assay in all cases: NCI-60 cell line screen, 48 h
HOP-92 = test system: HOP-92
786-0 = test system: 786-0
NCI/ADR-RES = test system: NCI/ADR-RES
A498 = test system: A498
TK-10 = test system: TK-10
T47D = test system: T47D
CAKI-1 = test system: CAKI-1
SK-MEL-2 = test system: SK-MEL-2
MDA-N = test system: MDA-N
OVCAR-5 = test system: OVCAR-5
SK-MEL-28 = test system: SK-MEL-28
UO-31 = test system: UO-31
M14 = test system: M14
NCI-H522 = test system: NCI-H522
MCF7 = test system: MCF7
ACHN = test system: ACHN
RPMI-8226 = test system: RPMI-8226
HL-60 = test system: HL-60
OVCAR-3 = test system: OVCAR-3
SK-OV-3 = test system: SK-OV-3

Row | SMILES | GI50 (HOP-92) | GI50 (786-0) | GI50 (NCI/ADR-RES) | GI50 (A498) | GI50 (TK-10) | GI50 (T47D) | GI50 (CAKI-1) | GI50 (SK-MEL-2) | GI50 (MDA-N) | GI50 (OVCAR-5) | GI50 (SK-MEL-28) | GI50 (UO-31) | GI50 (M14) | GI50 (NCI-H522) | GI50 (MCF7) | GI50 (ACHN) | GI50 (RPMI-8226) | GI50 (HL-60) | GI50 (OVCAR-3) | GI50 (SK-OV-3)
1 | Cc1cn([C@@H]2C[C@@H]2CO)c(=O)[nH]c1=O | > 100 µM (inactive) | > 100 µM (inactive) | > 100 µM (inactive) | > 100 µM (inactive) | > 100 µM (inactive) | > 100 µM (inactive) | > 100 µM (inactive) | > 100 µM (inactive) | > 100 µM (inactive) | > 100 µM (inactive) | > 100 µM (inactive) | > 100 µM (inactive) | > 100 µM (inactive) | > 100 µM (inactive) | > 100 µM (inactive) | > 100 µM (inactive) | > 100 µM (inactive) | > 100 µM (inactive) |  | 
2 | NC(=S)Nc1nc(=S)[nH]c2[nH]ccc12 | > 100 µM (inactive) | > 100 µM (inactive) | > 100 µM (inactive) | > 100 µM (inactive) | 94.8 µM (inactive) | 58.2 µM (inactive) | > 100 µM (inactive) | > 100 µM (inactive) | 98.2 µM (inactive) | > 100 µM (inactive) | > 100 µM (inactive) | 66.7 µM (inactive) | > 100 µM (inactive) |  | 91.2 µM (inactive) | > 100 µM (inactive) | 25.9 µM (inactive) | 19.1 µM (inactive) | 29.7 µM (inactive) | > 100 µM (inactive)
3 | CN(N=O)C(=N)NC(=O)c1ccccc1 | > 100 µM (inactive) | > 100 µM (inactive) | > 100 µM (inactive) | > 100 µM (inactive) | > 100 µM (inactive) | > 100 µM (inactive) | > 100 µM (inactive) | > 100 µM (inactive) | > 100 µM (inactive) | > 100 µM (inactive) |  | > 100 µM (inactive) | > 100 µM (inactive) | > 100 µM (inactive) | 54.7 µM (inactive) | > 100 µM (inactive) | > 100 µM (inactive) |  | > 100 µM (inactive) | > 100 µM (inactive)
4 | CC(=O)NC1C(OCc2ccccc2)OC(CO)C(O)C1OCC(=O)NC(C)C(=O)NC(CCC(=O)Nc1ccc2c(c1)CN1C(=O)c3ccccc3C1=N2)C(N)=O (configuration not stated) | 76.7 µM (inactive) | > 100 µM (inactive) | > 100 µM (inactive) | > 100 µM (inactive) | > 100 µM (inactive) | 42.8 µM (inactive) | > 100 µM (inactive) | > 100 µM (inactive) | > 100 µM (inactive) | > 100 µM (inactive) | > 100 µM (inactive) | > 100 µM (inactive) | > 100 µM (inactive) |  | 53.2 µM (inactive) | > 100 µM (inactive) | > 100 µM (inactive) | > 100 µM (inactive) | > 100 µM (inactive) | > 100 µM (inactive)
5 | CCOC(=O)Nc1cc2c(c(N)n1)N=C(c1ccccc1)CN2 | < 0.01 µM (active) | < 0.01 µM (active) | < 0.0001 µM (active) | 0.31 µM (active) | 10.7 µM (inactive) | 37.3 µM (inactive) | < 0.01 µM (active) |  | < 0.01 µM (active) | < 0.01 µM (active) | 14.5 µM (inactive) | < 0.0194 µM (active) | < 0.01 µM (active) | < 0.01 µM (active) | 0.0317 µM (active) | < 0.01 µM (active) | < 0.01 µM (active) | < 0.0001 µM (active) | < 0.01 µM (active) | 0.0527 µM (active)
6 | C[C@]12CC[C@@H]3c4ccc(OS(N)(=O)=O)cc4CC[C@H]3[C@@H]1CCC2=O [EMATE] | > 100 µM (inactive) | 53.3 µM (inactive) | 26.6 µM (inactive) | 97.1 µM (inactive) | 59.6 µM (inactive) | 29 µM (inactive) | > 100 µM (inactive) | 37.5 µM (inactive) | 31.6 µM (inactive) | > 100 µM (inactive) | 95.1 µM (inactive) | 38.7 µM (inactive) | 38.9 µM (inactive) |  | 36.5 µM (inactive) | 84.9 µM (inactive) | 31.1 µM (inactive) | 33 µM (inactive) | 64 µM (inactive) | > 100 µM (inactive)
